Laboratory results taken from patent US20070105822A1, “Novel uses of known drugs” (priority 2003, published 2007).

Assays:
[1] = in vivo; cited from earlier work
Vγ9-expressing T cells = experiment: Intracellular cytokine staining (ICS) of fresh PBMC exposed to nBPs; assay type: cell-based, human; conditions: for IL6 and TNFα production by Vγ9-expressing cells by ICS: 100 μM pamidronate, FIG. 2D
Method: 10^6 fresh PBMC were incubated in FACS tubes with brefeldin A (10 μg/ml R10) for 5 hours after pulsing with relevant antigens for 1 hour. The cells were then washed, permeabilised in 20% FACSLyse (BD Biosciences), washed twice in ice cold PBS/0.1% BSA and stained on ice with pre-titred APC-conjugated anti-IFNγ, anti-TNFα and anti-IL-2 and PE-conjugated anti-Vγ9 mAbs for 20 minutes. For single cytokine analysis (FIG. 2D), cells were stained with PE-conjugated anti-IL6, APC-conjugated anti-TNFα and FITC-conjugated anti-Vγ9 antibodies. In each case, cells were then washed, resuspended in PBS & analysed immediately.
5×10^6 PBMC from a healthy donor+/−magnetic depletion of γδ T cells were suspended in 1 ml of R10+/−antigen in 75×5 mm FACS tubes at 37° C. and 5% CO2 for the times shown. 60 μl of cell supernatant was removed and applied to TNFα ELISA plates in duplicate and developed according to the manufacturers instructions. Standard deviation from the mean of the two replicate ELISAs is shown although, in most cases, this error is smaller than the plot symbol. In (C), exposure to nBPs activates PBMC that express a Vγ9 receptor and not other T cells or B cells. 10^6 fresh human PBMC were exposed to R10 (top panel) or R10+10 μM risedronate (bottom panel) for 6 hours in an intracellular cytokine staining (ICS) assay. Plots show all the cells in the lymphocyte gate stained for PE-Vγ9 and APC-cytokines (TNFα, IL2, and IFNγ). Exposure to risedronate induces cytokine production only in lymphocytes that express a Vγ9 TCR. The percentage of total lymphocytes in the Vγ9^+ cytokine^+ gate shown is indicated in the upper right of each panel. Almost 10% of the lymphocytes expressing a Vγ9 receptor are activated by exposure to nBPs. […] Plots are gated to show only Vγ9-expressing lymphocytes. […] The percentage of cytokine positive cells (fluorescence intensity>20) is shown in the upper right corner of each panel.

human PBMC = experiment: TNFα ELISA on direct ex vivo human PBMC exposed to nBPs; assay type: cell-based; conditions: 10 μM risedronate or 100 μM pamidronate, 12 hours, FIG. 1B
Method: γδ T cells were washed in RPMI and incubated overnight in R10 at 37° C. 96-well nitrocellulose plates (Millipore) were incubated overnight at 4° C. with 15 μg/ml antihuman-IFN-γ primary antibody (clone 1-D1K; Mabtech, Sweden). The plates were then washed twice with RPMI and blocked with R10 for 3 hours at 37° C. R10 was decanted by inversion and assays applied to each well before incubation at 37° C. as detailed below. Assays were terminated by washing once in water, followed by 5 washes in PBS. Secondary antibody (anti-human-IFN-γ-Biotin antibody clone 7-B6-1; Mabtech) was applied at 1 μg/ml and the plate incubated for 100 minutes at room temperature (RT). The plate was washed 6 times with PBS before application of Streptavidin-ALP (1:1000 in PBS; Mabtech) for 40 minutes at RT. […] A TNFα ELISA kit (Peprotech) was used in accordance with the manufacturers instructions.
In FIG. 1 (B), nBPs are shown to stimulate TNFA production from direct ex vivo human PBMC. […] 60 μl aliquots were removed at the specified time and added to TNFα ELISA assays.

[2] = system: human PBMC depleted of γδ T cells; experiment: TNFα ELISA on PBMC after magnetic depletion of γδ T cells; assay type: cell-based; conditions: 100 μM pamidronate, 10 μM risedronate; FIG. 2A, 2B
Method: (§1) γδ T cells were washed in RPMI and incubated overnight in R10 at 37° C. 96-well nitrocellulose plates (Millipore) were incubated overnight at 4° C. with 15 μg/ml antihuman-IFN-γ primary antibody (clone 1-D1K; Mabtech, Sweden). The plates were then washed twice with RPMI and blocked with R10 for 3 hours at 37° C. R10 was decanted by inversion and assays applied to each well before incubation at 37° C. as detailed below. Assays were terminated by washing once in water, followed by 5 washes in PBS. Secondary antibody (anti-human-IFN-γ-Biotin antibody clone 7-B6-1; Mabtech) was applied at 1 μg/ml and the plate incubated for 100 minutes at room temperature (RT). The plate was washed 6 times with PBS before application of Streptavidin-ALP (1:1000 in PBS; Mabtech) for 40 minutes at RT. […]
10^8 human PBMC were incubated with 10 μg/ml of anti-human pan-γδ antibody for 30 minutes on ice. […] The success of depletion was determined by FACS analysis with the anti-CD3 and pan-γδ antibodies detailed above, and was >95% efficient in all cases shown.
5×10^6 PBMC from a healthy donor+/−magnetic depletion of γδ T cells were suspended in 1 ml of R10+/−antigen in 75×5 mm FACS tubes at 37° C. and 5% CO2 for the times shown. […] The percentage of cytokine positive cells (fluorescence intensity>20) is shown in the upper right corner of each panel.

circulating γδ T cells = conditions: cited from earlier work
Vγ9JPVδ2 T cells = experiment: IFNγ ELISpot with Vγ9JPVδ2 T cell clone Bob and spinner HeLa antigen presenting cells; assay type: cell-based, human; conditions: 1,000 Vγ9JPVδ2 T cells, 25,000 spinner HeLa cells per well, 6 hours; FIG. 1A
Method: (§2) γδ T cells were isolated from human peripheral blood using a magnetic separation kit (TCR γ/δ Microbead Kit and MS columns from Miltenyi Biotech). Once isolated, cells were resuspended in T cell medium (RPMI supplemented with 100 U/ml penicillin, 100 μg/ml streptomycin, 10% FCS, 10% T-STIM (BD Biosciences), 200 U/ml Proleukin (Chiron)) containing 2×10^6 γ-irradiated PMBC/ml from three individuals and 2 μg/ml PHA. Cells were maintained with T cell medium, and restimulated with mixed irradiated PBMC and PHA every three weeks. For cloning, the same mix was used to grow cells by limiting dilution in 96-well U-boftomed plates. Cells that grew were confirmed to be γδ T cells with Vγ9 antibody.
as §1, with “(RT).” for “(RT). The plate was washed 6 times with PBS before application of Streptavidin-ALP (1:1000 in PBS; Mabtech) for 40 minutes at RT.”

Vγ9JPVδ2 T cell clones = experiment: TNFα ELISA on Vγ9JPVδ2 T cell clones activated by risedronate; assay type: cell-based, human; conditions: 10 μM risedronate, 10^6 T cells, clones P, M and Bob; FIG. 1C
Method: as §2
as §1, with “(RT).” for “(RT). The plate was washed 6 times with PBS before application of Streptavidin-ALP (1:1000 in PBS; Mabtech) for 40 minutes at RT.”

γδ T cell = conditions: cited from earlier work

Structure (SMILES) | acute phase response [1] | IL6 and TNFα production by Vγ9-expressing cells by ICS (Vγ9-expressing T cells; 10 μM risedronate) | TNFα production from direct ex vivo human PBMC (human PBMC) | TNFα production by PBMC after magnetic depletion of γδ T cells [2] | activation of clonal Vγ9JPVδ2 T cells by IFNγ ELISpot (Vγ9JPVδ2 T cells) | also measured
O=P(O)(O)C(Cl)(Cl)P(=O)(O)O [clodronate, disodium clodronate] | has not been observed |  |  |  |  | 
O=P(O)(O)C(Sc1ccc(Cl)cc1)P(=O)(O)O [tiludronate] | has not been observed |  |  |  |  | 
CC(O)(P(=O)(O)O)P(=O)(O)O [etidronate, disodium etidronate] | has not been observed |  |  |  |  | 
NCCC(O)(P(=O)(O)O)P(=O)(O)O [pamidronate, disodium pamidronate] |  | make both IL6 and TNFα | large amounts of TNFα | removed the ability of PBMC to produce TNFα | activate | number of circulating γδ T cells in patients with acute phase reaction (circulating γδ T cells; 1 and 3 weeks post-infusion): substantial increase; γδ T cells as % of CD3+ cells post-infusion (circulating γδ T cells; one patient, expanded from 4.6%): 70%
O=P(O)(O)C(O)(Cc1cccnc1)P(=O)(O)O [risedronate, risedronate sodium] |  | make both IL6 and TNFα | large amounts of TNFα | removed the ability of PBMC to produce TNFα | activate | lymphocytes expressing a Vγ9 receptor activated (cytokine+ by ICS) (Vγ9-expressing T cells; 10 μM risedronate (100 μM pamidronate, data not shown), 6 hours, TNFα, IL2, IFNγ staining, FIG. 2C): ~10%; expression of the Vγ9 TCR (Vγ9-expressing T cells; 10 μM risedronate, 6 hours, ICS): lowers the expression of the Vγ9 TCR; activation (TNFα production) of Vγ9JPVδ2 T cell clones (Vγ9JPVδ2 T cell clones): extremely rapid; concentration stimulating γδ T cell expansion from human PBMC (γδ T cell): ≥ 10 nM
